Results published in patent US20240246916A1, “7-NITRO-8-HYDROXYQUINOLINE DERIVATIVES, PREPARATION METHOD THEREFORE AND MEDICAL USE THEREOF” (Jiangsu Yahong Meditech Co., Ltd., priority 2021, published 2024).
≈ marks a conversion by molar mass, not a printed value.

Columns and labels:
Format in all cases: cell-based
[1] = system: Mouse prostate cancer cell line RM1; assay: Inhibitory activity on cancer cells, CellTiter-Glo viability, RM1; conditions: 72 hours treatment
In short: (§1)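 HUVEC seeded at 2000, UM-UC-3 and RM-1 at 3000, LNCaP at 5000 cells/well, each in its own medium, 24 h before dosing. Compounds: 8-point 2.5-fold dilutions from 100 μmol, 72 h at 37 °C, 5% CO2. CellTiter-Glo luminescence; IC50 from growth-inhibition curves.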

[2] = system: Escherichia coli (carbapenem-resistant clinical isolate; ATCC25922); assay: MIC by micro broth dilution (CLSI), Escherichia coli; conditions: Escherichia coli; for MIC50 / MIC90: ATCC25922, Clinical strain; for MIC50: read-out: MIC50; for MIC90: read-out: MIC90; for MIC: Standard strain ATCC25922, read-out: MIC
In short: (§2)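 CLSI broth microdilution in cation-adjusted Mueller-Hinton broth, compounds in DMSO at 128 to 0.06 mg/L. Inoculum 10^5 CFU/mL from 0.5 McFarland suspensions diluted 100-fold; 35±2 °C, 20 h in air. Clinical isolates plus ATCC/NCTC quality-control strains; interpretation per CLSI 2019 M100.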

[3] = system: Endothelial cell line HUVEC; assay: Inhibitory activity on cells, CellTiter-Glo viability, HUVEC; conditions: Homo sapiens, 72 hours treatment
In short: as §1

[4] = system: Prostate cancer cell line LNcaP; assay: Inhibitory activity on cancer cells, CellTiter-Glo viability, LNcaP; conditions: Homo sapiens, 72 hours treatment
In short: as §1

[5] = system: Bladder cancer cell line UM-UC-3; assay: Inhibitory activity on cancer cells, CellTiter-Glo viability, UM-UC-3; conditions: Homo sapiens, UMUC3, 72 hours treatment
In short: as §1

[6] = system: Acinetobacter baumannii (carbapenem-resistant clinical isolates; ATCC19606); assay: MIC by micro broth dilution (CLSI), Acinetobacter baumannii; conditions: Acinetobacter baumannii; for MIC50 / MIC90: ATCC19606, Clinical strain; for MIC50: read-out: MIC50; for MIC90: read-out: MIC90; for MIC: Standard strain ATCC19606, read-out: MIC
In short: as §2

[7] = MIC by micro broth dilution (CLSI), Klebsiella pneumoniae; conditions: for MIC50 / MIC90: Standard strain; for MIC: Standard strain ATCC43816
Excerpt: The test bacteria were one strain of clinically isolated carbapenem-resistant Escherichia coli, two strains of carbapenem-resistant Acinetobacter baumannii, two strains of methicillin-resistant Staphylococcus aureus, two strains of sensitive Staphylococcus aureus, and 7 strains of Klebsiella pneumoniae. Duplicate strains isolated from the same patient were eliminated. There were also […] quality control strains Escherichia coli ATCC25922, Acinetobacter baumannii ATCC19606, Staphylococcus aureus ATCC29213, Klebsiella pneumoniae ATCC BAA-1705, ATCC 43816, ATCC BAA-2472, ATCC-BAA-1898, ATCC-BAA-1899, NCTC 13440 and ATCC-BAA-2470. There were 24 strains in total.
According to the recommendations of relevant documents of the American Clinical and Laboratory Standards Institute (CLSI), the micro broth dilution method was used to determine the MIC of the compounds of the present invention against clinically isolated strains. • 3.1 Formulation of antibacterial drug: All the compounds of the present invention were dissolved in DMSO. The drug concentration range was 128 mg/L to 0.06 mg/L. • 3.2 Culture medium: The drug susceptibility test used cation adjusted Mueller-Hinton broth (CAMHB). • 3.3 Amount of inoculum: The test bacteria cultured overnight were adjusted to 0.5 McFarland turbidity by the direct colony suspension method, and diluted 100 folds, the final inoculum amount was 10^5 CFU/mL. • 3.4 Culture conditions: The test bacteria were cultured at 35±2° C. for 20 hours in air.
The drug susceptibility test results were interpretated by reference to CLSI 2019 M100 29th edition criteria.
The quality control strains of the drug susceptibility test were Escherichia coli ATCC 25922, Acinetobacter baumannii ATCC 19606, Staphylococcus aureus ATCC 29213, Klebsiella pneumoniae ATCC BAA-1705, ATCC 43816, ATCC BAA-2472, ATCC-BAA-1898, ATCC-BAA-1899, NCTC 13440 and ATCC-BAA-2470.
The results of drug susceptibility test were statistically analyzed by WHONET software (version 5.6).

[8] = system: Staphylococcus aureus (methicillin-resistant and sensitive clinical isolates; ATCC29213); assay: MIC by micro broth dilution (CLSI), Staphylococcus aureus; conditions: for MIC50 / MIC90: Clinical strain; for MIC50: read-out: MIC50; for MIC90: read-out: MIC90; for MIC: Standard strain ATCC29213, read-out: MIC
In short: as §2

For `O=[N+]([O-])c1ccc2cccnc2c1O` [Example 1, 7-Nitroquinolin-8-ol], the IC50 [1] was 8.13 µM, the MIC50 [2] was 16 µg/mL (≈ 84.1 µM) and the MIC90 [2] was 16 µg/mL (≈ 84.1 µM). It also gave an MIC [2] of 8 µg/mL (≈ 42.1 µM), an IC50 [3] of 14.9 µM and an IC50 [4] of 10.9 µM. It also gave an IC50 [5] of 9.33 µM, an MIC50 [6] of 4 µg/mL (≈ 21 µM) and an MIC90 [6] of 8 µg/mL (≈ 42.1 µM). The MIC [6] was 16 µg/mL (≈ 84.1 µM), the MIC50 [7] was 16 µg/mL (≈ 84.1 µM) and the MIC90 [7] was 64 µg/mL (≈ 337 µM). It also gave an MIC [7] of 8 µg/mL (≈ 42.1 µM), an MIC50 [8] of 4 µg/mL (≈ 21 µM) and an MIC90 [8] of 4 µg/mL (≈ 21 µM).
Work on `Cc1cc2cccnc2c(O)c1[N+](=O)[O-]` [Example 2, 6-Methyl-7-nitroquinolin-8-ol] yielded an MIC50 [2] of 16 µg/mL (≈ 78.4 µM), an MIC90 [2] of 64 µg/mL (≈ 313 µM) and an MIC [2] of 8 µg/mL (≈ 39.2 µM). For the same compound, the IC50 [3] was 7.06 µM, the IC50 [4] was 5.97 µM and the IC50 [5] was 3.88 µM. The MIC50 [6] was 8 µg/mL (≈ 39.2 µM), the MIC90 [6] was 8 µg/mL (≈ 39.2 µM) and the MIC50 [7] was 32 µg/mL (≈ 157 µM). It also gave an MIC90 [7] of 64 µg/mL (≈ 313 µM), an MIC50 [8] of 4 µg/mL (≈ 19.6 µM) and an MIC90 [8] of 4 µg/mL (≈ 19.6 µM).
Work on `O=[N+]([O-])c1ccc2ccc(F)nc2c1O` [Example 5, 2-Fluoro-7-nitroquinolin-8-ol] yielded an MIC50 [2] of 32 µg/mL (≈ 154 µM), an MIC90 [2] of 32 µg/mL (≈ 154 µM) and an MIC50 [6] of over 64 µg/mL. The MIC90 [6] was over 64 µg/mL, the MIC50 [7] was over 64 µg/mL and the MIC90 [7] was over 64 µg/mL. The MIC50 [8] was 64 µg/mL (≈ 307 µM) and the MIC90 [8] was 64 µg/mL (≈ 307 µM).
For `Cc1ccc2ccc([N+](=O)[O-])c(O)c2n1` [Example 6, 2-Methyl-7-nitroquinolin-8-ol], the MIC50 [2] was 64 µg/mL (≈ 313 µM), the MIC90 [2] was 64 µg/mL (≈ 313 µM) and the MIC50 [6] was over 64 µg/mL. For the same compound, the MIC90 [6] was over 64 µg/mL, the MIC50 [7] was over 64 µg/mL and the MIC90 [7] was over 64 µg/mL. It also gave an MIC50 [8] of 64 µg/mL (≈ 313 µM) and an MIC90 [8] of 64 µg/mL (≈ 313 µM).
Compound `Cc1cnc2c(O)c([N+](=O)[O-])ccc2c1` [Example 8, 3-Methyl-7-nitroquinolin-8-ol] has an IC50 [1] of 3.18 µM, an MIC50 [2] of 4 µg/mL (≈ 19.6 µM) and an MIC90 [2] of 4 µg/mL (≈ 19.6 µM). The IC50 [3] was 5.7 µM, the IC50 [4] was 9.3 µM and the IC50 [5] was 3.77 µM. For the same compound, the MIC50 [6] was 8 µg/mL (≈ 39.2 µM), the MIC90 [6] was 16 µg/mL (≈ 78.4 µM) and the MIC50 [7] was 32 µg/mL (≈ 157 µM). The MIC90 [7] was 32 µg/mL (≈ 157 µM), the MIC50 [8] was 8 µg/mL (≈ 39.2 µM) and the MIC90 [8] was 8 µg/mL (≈ 39.2 µM).
`N#Cc1cc([N+](=O)[O-])c(O)c2ncccc12` [Example 9, 8-Hydroxy-7-nitroquinoline-5-carbonitrile] gave an MIC50 [2] of over 64 µg/mL, an MIC90 [2] of over 64 µg/mL and an MIC50 [6] of over 64 µg/mL. The MIC90 [6] was over 64 µg/mL, the MIC50 [7] was 64 µg/mL (≈ 297 µM) and the MIC90 [7] was over 64 µg/mL. The MIC50 [8] was over 64 µg/mL and the MIC90 [8] was over 64 µg/mL.
In the case of `Cc1ccnc2c(O)c([N+](=O)[O-])ccc12` [Example 10, 4-Methyl-7-nitroquinolin-8-ol], the MIC50 [2] is reported as 32 µg/mL (≈ 157 µM), the MIC90 [2] is reported as 32 µg/mL (≈ 157 µM) and the MIC50 [6] is reported as 32 µg/mL (≈ 157 µM). The MIC90 [6] was 64 µg/mL (≈ 313 µM), the MIC50 [7] was over 64 µg/mL and the MIC90 [7] was over 64 µg/mL. It also gave an MIC50 [8] of 16 µg/mL (≈ 78.4 µM) and an MIC90 [8] of 16 µg/mL (≈ 78.4 µM).
Work on `O=[N+]([O-])c1ccc2c(C3CC3)ccnc2c1O` [Example 11, 4-Cyclopropyl-7-nitroquinolin-8-ol] yielded an IC50 [1] of 3.42 µM, an MIC50 [2] of 8 µg/mL (≈ 34.7 µM) and an MIC90 [2] of 128 µg/mL (≈ 556 µM). The MIC [2] was over 128 µg/mL, the IC50 [3] was 2.97 µM and the IC50 [4] was 1.67 µM. The IC50 [5] was 2.71 µM, the MIC50 [6] was 16 µg/mL (≈ 69.5 µM) and the MIC90 [6] was 128 µg/mL (≈ 556 µM). For the same compound, the MIC [6] was over 128 µg/mL, the MIC50 [7] was 64 µg/mL (≈ 278 µM) and the MIC90 [7] was 64 µg/mL (≈ 278 µM). It also gave an MIC50 [8] of 8 µg/mL (≈ 34.7 µM), an MIC90 [8] of 8 µg/mL (≈ 34.7 µM) and an MIC [8] of 4 µg/mL (≈ 17.4 µM).
With `O=[N+]([O-])c1ccc(O)c2ncccc12` [Nitroxoline, nitroxoline, reference compound] the IC50 [1] was 4.3 µM, the MIC50 [2] was 8 µg/mL (≈ 42.1 µM) and the MIC90 [2] was 16 µg/mL (≈ 84.1 µM). It also gave an MIC [2] of 4 µg/mL (≈ 21 µM), an IC50 [3] of 4.5 µM and an IC50 [4] of 5.1 µM. For the same compound, the IC50 [5] was 9.2 µM, the MIC50 [6] was 4 µg/mL (≈ 21 µM) and the MIC90 [6] was 4 µg/mL (≈ 21 µM). The MIC [6] was 2 µg/mL (≈ 10.5 µM), the MIC50 [7] was 8 µg/mL (≈ 42.1 µM) and the MIC90 [7] was 16 µg/mL (≈ 84.1 µM). The MIC [7] was 4 µg/mL (≈ 21 µM), the MIC50 [8] was 4 µg/mL (≈ 21 µM) and the MIC90 [8] was 4 µg/mL (≈ 21 µM). It also gave an MIC [8] of 4 µg/mL (≈ 21 µM).
